Our source for the MIC values is DBAASP.

Common to all, as to assay: ≥ marks a high value that may be exact or a test limit, other limits are often not marked, values filed in µg/mL are converted to µM
Experiment [1] has as its system Candida albicans NCPF 1467.
Experiment [2] relates to Staphylococcus aureus NCTC 10788.
The test system of experiment [3] is Bacillus subtilis ATCC 6633.
Experiment [4] relates to Escherichia coli ATCC 25922.
The subject of experiment [5] is Klebsiella pneumoniae ATCC 10031.
Experiment [6] concerns Micrococcus luteus ATCC 10240.
The subject of experiment [7] is Pseudomonas aeruginosa ATCC 27853.
Experiment [8] concerns Salmonella enterica subsp. enterica serovar Typhimurium ATCC 14028.
Experiment [9] concerns Shigella dysenteriae ATCC 9752.
Experiment [10] concerns Staphylococcus aureus ATCC 6538P.
The test system of experiment [11] is Staphylococcus aureus TK784.
Experiment [12] deals with Staphylococcus epidermidis ATCC 12228.
In experiment [13] the test system is Candida albicans ATCC 20032.
Experiment [14] concerns Staphylococcus aureus ATCC 25923.
Experiment [15] has as its system Bacillus subtilis ATCC 62037.
Experiment [16] relates to Candida albicans ATCC 10231.
For experiment [17], the system named is Cryptococcus neoformans ATCC 34881.
Experiment [18] deals with Escherichia coli ATCC 27325.
The subject of experiment [19] is Pseudomonas putida ATCC 17426.
For experiment [20], the system named is Saccharomyces cerevisiae ATCC 44774.
Experiment [21] deals with Salmonella enterica subsp. enterica serovar Enteritidis ATCC 13076.
Experiment [22] deals with Staphylococcus aureus ATCC 15752.
Experiment [23] relates to Streptococcus mutans ATCC 25175.
In experiment [24] the test system is Escherichia coli NCTC 10418.

By MIC is commonly meant the lowest concentration found to suppress growth. Low readings indicate inhibition by little substance, high ones a need for much substance.

Converted amounts (≈) assume the structure as drawn.

On to `CC[C@H](C)[C@H](N)C(=O)N[C@H](C(=O)NCC(=O)N[C@@H](C)C(=O)N[C@H](C(=O)N[C@@H](C)C(=O)N[C@@H](C)C(=O)N[C@@H](C)C(=O)N[C@@H](CC(C)C)C(=O)N1CCC[C@H]1C(=O)N[C@@H](Cc1cnc[nH]1)C(=O)N[C@H](C(=O)N[C@H](C(=O)N[C@@H](CC(N)=O)C(=O)N[C@@H](C)C(=O)N[C@H](C(=O)N[C@@H](CCCCN)C(=O)N[C@@H](CC(N)=O)C(=O)N[C@H](C(=O)N[C@@H](Cc1ccccc1)C(=O)O)[C@@H](C)O)[C@@H](C)CC)[C@@H](C)CC)C(C)C)[C@@H](C)CC)[C@@H](C)CC` [IIGAIAAALPHVINAIKNTF], for which the MIC in experiment [1] was no less than 120 µM; in [2], 16 µM (≈ 32.8 µg/mL).
Regarding `CC(C)C[C@H](NC(=O)[C@H](CC(C)C)NC(=O)[C@H](Cc1c[nH]c2ccccc12)NC(=O)[C@H](CCCCN)NC(=O)[C@H](CC(C)C)NC(=O)[C@H](CC(C)C)NC(=O)[C@H](Cc1c[nH]c2ccccc12)NC(=O)[C@H](CCCCN)NC(=O)[C@H](CC(C)C)NC(=O)[C@@H](N)CC(C)C)C(=O)N[C@@H](CCCCN)C(N)=O` [LLKWLLKWLLK], the MIC in experiment [3] is 0.894 µM (≈ 1.3 µg/mL); in experiment [4], greater than 55 µM; in [5], no less than 55 µM; in [6], 1.72 µM (≈ 2.5 µg/mL); in [7], greater than 55 µM; in experiment [8], greater than 55 µM. Besides, the MIC in [9] is no less than 55 µM; in experiment [10], 1.72 µM (≈ 2.5 µg/mL); in [11], 3.44 µM (≈ 5 µg/mL); in experiment [12], 0.894 µM (≈ 1.3 µg/mL).
With `CC[C@H](C)[C@H](NC(=O)CN)C(=O)NCC(=O)N[C@H](C(=O)N[C@@H](CCCCN)C(=O)N[C@@H](Cc1ccccc1)C(=O)N[C@@H](CC(C)C)C(=O)NCC(=O)NCC(=O)N[C@H](C(=O)N[C@@H](CCCCN)C(=O)N[C@H](C(=O)N[C@@H](C)C(=O)N[C@@H](CC(C)C)C(=O)N[C@@H](CCCCN)C(=O)NCC(=O)N[C@@H](C)C(=O)N[C@@H](CC(C)C)C(=O)N[C@@H](CCCCN)C(=O)N[C@@H](CCC(=O)O)C(=O)N[C@@H](CC(C)C)C(=O)N[C@@H](C)C(=O)N[C@@H](Cc1ccccc1)C(=O)N[C@H](C(=O)N[C@@H](Cc1ccc(O)cc1)C(=O)N[C@H](C(=O)N[C@@H](CC(N)=O)C(N)=O)C(C)C)[C@@H](C)O)[C@@H](C)O)C(C)C)[C@@H](C)O` [GIGTKFLGGVKTALKGALKELAFTYVN], the MIC in experiment [3] is no less than 35.7 µM; in experiment [13], no less than 35.7 µM; in [4], 13.4 µM (≈ 37.5 µg/mL); in experiment [14], 6.72 µM (≈ 18.8 µg/mL).
For `CC[C@H](C)[C@H](NC(=O)CNC(=O)[C@H](CCCCN)NC(=O)[C@H](CCCCN)NC(=O)[C@H](CCC(N)=O)NC(=O)[C@H](CC(C)C)NC(=O)[C@H](CCCN=C(N)N)NC(=O)[C@H](CC(C)C)NC(=O)[C@H](CC(C)C)NC(=O)[C@H](CCCN=C(N)N)NC(=O)[C@H](CCCN=C(N)N)NC(=O)[C@H](CC(C)C)NC(=O)[C@H](CC(C)C)NC(=O)[C@H](CCCN=C(N)N)NC(=O)[C@H](CCSC)NC(=O)[C@H](C)NC(=O)[C@H](CCCCN)NC(=O)[C@@H]1CCCN1C(=O)[C@H](C)N)C(=O)O` [APKAMRLLRRLLRLQKKGI], the MIC in [15] amounted to 0.442 µM (≈ 1 µg/mL); in experiment [16] it was 0.221 µM (≈ 0.5 µg/mL); in experiment [17] it was 0.221 µM (≈ 0.5 µg/mL); in experiment [18], 0.442 µM (≈ 1 µg/mL); in experiment [19], 0.442 µM (≈ 1 µg/mL); in experiment [20], 0.221 µM (≈ 0.5 µg/mL). Further, the MIC in [21] is 0.442 µM (≈ 1 µg/mL); in experiment [22] it was 0.884 µM (≈ 2 µg/mL); in experiment [23], 0.442 µM (≈ 1 µg/mL).
Regarding `CC[C@H](C)[C@H](N)C(=O)N[C@@H](CC(C)C)C(=O)NCC(=O)N1CCC[C@H]1C(=O)N[C@H](C(=O)N[C@@H](CC(C)C)C(=O)NCC(=O)N[C@@H](CC(C)C)C(=O)N[C@H](C(=O)NCC(=O)N[C@@H](CC(N)=O)C(=O)N[C@@H](C)C(=O)N[C@@H](CC(C)C)C(=O)NCC(=O)NCC(=O)N[C@@H](CC(C)C)C(=O)N[C@H](C(=O)N[C@@H](CCCCN)C(=O)N[C@@H](CCCCN)C(=O)N[C@@H](CC(C)C)C(N)=O)[C@@H](C)CC)C(C)C)C(C)C` [ILGPVLGLVGNALGGLIKKL], the MIC was 9.66 µM (≈ 18.8 µg/mL) in [3], 4.83 µM (≈ 9.4 µg/mL) in experiment [13], greater than 51.4 µM in [4] and 4.83 µM (≈ 9.4 µg/mL) in experiment [14].
Turning to `CC(C)C[C@H](NC(=O)[C@H](Cc1c[nH]c2ccccc12)NC(=O)[C@H](CCCCN)NC(=O)[C@H](CCCCN)NC(=O)[C@H](CC(C)C)NC(=O)[C@H](Cc1c[nH]c2ccccc12)NC(=O)[C@H](CCCCN)NC(=O)[C@H](CC(C)C)NC(=O)[C@@H](N)CC(C)C)C(=O)N[C@@H](CCCCN)C(=O)N[C@@H](CCCCN)C(N)=O` [LLKWLKKWLKK], the MIC in experiment [3] is 1.68 µM (≈ 2.5 µg/mL); in experiment [4], 27 µM (≈ 40 µg/mL); in experiment [5], 27 µM (≈ 40 µg/mL); in experiment [6] it was 3.37 µM (≈ 5 µg/mL); in experiment [7] it was 13.5 µM (≈ 20 µg/mL); in experiment [8], 53.9 µM (≈ 79.9 µg/mL). For the same molecule, the MIC is no less than 53.9 µM in experiment [9], 1.68 µM (≈ 2.5 µg/mL) in experiment [10], 27 µM (≈ 40 µg/mL) in experiment [11] and 1.68 µM (≈ 2.5 µg/mL) in experiment [12].
Turning to `CC[C@H](C)[C@H](NC(=O)[C@H](CO)NC(=O)[C@H](CC(N)=O)NC(=O)[C@@H](NC(=O)[C@H](Cc1ccccc1)NC(=O)[C@H](C)NC(=O)[C@H](CO)NC(=O)[C@H](C)NC(=O)[C@H](Cc1ccccc1)NC(=O)[C@H](CC(C)C)NC(=O)[C@H](CCCCN)NC(=O)[C@H](C)NC(=O)CNC(=O)[C@H](CC(C)C)NC(=O)[C@H](CCCCN)NC(=O)[C@H](CC(C)C)NC(=O)[C@H](CCCCN)NC(=O)[C@H](CC(C)C)NC(=O)[C@H](CC(C)C)NC(=O)[C@H](Cc1ccccc1)NC(=O)CN)C(C)C)C(=O)N[C@@H](CCCCN)C(N)=O` [GFLLKLKLGAKLFASAFVNSIK], the MIC in experiment [1] was 6.76 µM (≈ 16 µg/mL); in experiment [24] it was 13.5 µM (≈ 32 µg/mL); in experiment [2] it was 6.76 µM (≈ 16 µg/mL).
With `CC(C)C[C@H](NC(=O)[C@H](Cc1c[nH]c2ccccc12)NC(=O)[C@H](CCCCN)NC(=O)[C@H](CC(C)C)NC(=O)[C@H](CC(C)C)NC(=O)[C@H](CCCCN)NC(=O)[C@H](CCCCN)NC(=O)[C@H](CC(C)C)NC(=O)[C@H](CC(C)C)NC(=O)[C@H](CCCCN)NC(=O)[C@@H](N)CCCCN)C(N)=O` [KKLLKKLLKWL], the MIC in experiment [3] worked out at 0.709 µM (≈ 0.999 µg/mL); in experiment [4], 1.42 µM (≈ 2 µg/mL); in experiment [5] it was 1.42 µM (≈ 2 µg/mL); in [6], 1.42 µM (≈ 2 µg/mL); in experiment [7], 2.84 µM (≈ 4 µg/mL); in experiment [8], 0.709 µM (≈ 0.999 µg/mL). The MIC in experiment [9] stood at 0.709 µM (≈ 0.999 µg/mL); in experiment [10], 0.709 µM (≈ 0.999 µg/mL); in experiment [11], 2.84 µM (≈ 4 µg/mL); in [12], 0.709 µM (≈ 0.999 µg/mL).
For `CC[C@H](C)[C@H](N)C(=O)N[C@@H](CC(C)C)C(=O)NCC(=O)N1CCC[C@H]1C(=O)N[C@H](C(=O)N[C@@H](CC(C)C)C(=O)NCC(=O)N[C@@H](CC(C)C)C(=O)N[C@H](C(=O)NCC(=O)N[C@@H](CO)C(=O)N[C@@H](C)C(=O)N[C@@H](CC(C)C)C(=O)NCC(=O)NCC(=O)N[C@@H](CC(C)C)C(=O)N[C@H](C(N)=O)[C@@H](C)CC)C(C)C)C(C)C` [ILGPVLGLVGSALGGLI], the MIC in experiment [3] is no less than 64.6 µM; in experiment [13] it was no less than 64.6 µM; in experiment [4], greater than 64.6 µM; in experiment [14], greater than 64.6 µM.
